Experimental data reported in patent US10111890B2, “9-aminomethyl minocycline compounds and uses thereof” (Paratek Pharmaceuticals, Inc., priority 2016, dated 2018).

Tested on: ABSSSI known or suspected to be due to Gram-positive pathogens
Experiment: Phase 3 oral omadacycline vs oral linezolid in ABSSSI: Investigator's Assessment of Clinical Response at PTE
Type: in vivo, human
Conditions: for Overall Clinical Success at PTE, %: micro-mITT, % of N1
[1] = Cellulitis/erysipelas, actual type, mITT
[2] = Cellulitis/erysipelas, as randomized, mITT
[3] = Major Abscess, actual type, mITT
[4] = Major Abscess, as randomized, mITT
[5] = Wound Infection, actual type, mITT
[6] = Wound Infection, as randomized, mITT

## CC(=O)NCC1CN(c2ccc(N3CCOCC3)c(F)c2)C(=O)O1 (stereo not drawn) [Linezolid, N-[[3-(3-fluoro-4-morpholinophenyl)-2-oxooxazolidin-5-yl]methyl]acetamide, reference compound]
Cellulitis/erysipelas, actual type of infection, investigator assessment, mITT
  Overall clinical response at PTE: Clinical Success: 78 (92.9) n (%)
[1]
  Overall clinical response at PTE: Clinical Failure: 1 (1.2) n (%)
  Overall clinical response at PTE: Clinical Failure or Indeterminate: 6 (7.1) n (%)
  Overall clinical response at PTE: Indeterminate: 5 (6.0) n (%)
[2]
  Overall clinical response at PTE: Clinical Failure: 1 (1.2) n (%)
  Overall clinical response at PTE: Clinical Failure or Indeterminate: 6 (7.1) n (%)
  Overall clinical response at PTE: Indeterminate: 5 (6.0) n (%)
Cellulitis/erysipelas, type of infection as randomized, investigator assessment, mITT
  Overall clinical response at PTE: Clinical Success: 78 (92.9) n (%)
Major Abscess, actual type of infection, investigator assessment, mITT
  Overall clinical response at PTE: Clinical Success: 49 (79.0) n (%)
[3]
  Overall clinical response at PTE: Clinical Failure: 3 (4.8) n (%)
  Overall clinical response at PTE: Clinical Failure or Indeterminate: 13 (21.0) n (%)
  Overall clinical response at PTE: Indeterminate: 10 (16.1) n (%)
[4]
  Overall clinical response at PTE: Clinical Failure: 3 (4.8) n (%)
  Overall clinical response at PTE: Clinical Failure or Indeterminate: 13 (21.0) n (%)
  Overall clinical response at PTE: Indeterminate: 10 (16.1) n (%)
Major Abscess, type of infection as randomized, investigator assessment, mITT
  Overall clinical response at PTE: Clinical Success: 49 (79.0) n (%)
Wound Infection, actual type of infection, investigator assessment, mITT
  Overall clinical response at PTE: Clinical Success: 164 (76.6) n (%)
[5]
  Overall clinical response at PTE: Clinical Failure: 17 (7.9) n (%)
  Overall clinical response at PTE: Clinical Failure or Indeterminate: 50 (23.4) n (%)
  Overall clinical response at PTE: Indeterminate: 33 (15.4) n (%)
[6]
  Overall clinical response at PTE: Clinical Failure: 17 (7.9) n (%)
  Overall clinical response at PTE: Clinical Failure or Indeterminate: 50 (23.4) n (%)
  Overall clinical response at PTE: Indeterminate: 33 (15.4) n (%)
Wound Infection, type of infection as randomized, investigator assessment, mITT
  Overall clinical response at PTE: Clinical Success: 164 (76.6) n (%)
Baseline pathogen Clostridium perfringens, investigator assessment
  Overall Clinical Success at PTE, %: (77.8) %
Baseline pathogen Enterobacter cloacae, investigator assessment
  Overall Clinical Success at PTE, %: (100.0) %
Baseline pathogen Enterococcus faecalis VRE, investigator assessment
  Overall Clinical Success at PTE, %: (100.0) %
Baseline pathogen Enterococcus faecalis VSE, investigator assessment
  Overall Clinical Success at PTE, %: (70.0) %
Baseline pathogen Enterococcus faecalis, investigator assessment
  Overall Clinical Success at PTE, %: (75.0) %
Baseline pathogen Enterococcus faecium VSE, investigator assessment
  Overall Clinical Success at PTE, %: (100.0) %
Baseline pathogen Enterococcus faecium, investigator assessment
  Overall Clinical Success at PTE, %: (100.0) %
Baseline pathogen Escherichia coli, investigator assessment
  Overall Clinical Success at PTE, %: (100.0) %
Baseline pathogen Finegoldia magna, investigator assessment
  Overall Clinical Success at PTE, %: (0.0) %
Baseline pathogen Klebsiella pneumoniae, investigator assessment
  Overall Clinical Success at PTE, %: (66.7) %
Baseline pathogen MRSA, investigator assessment
  Overall Clinical Success at PTE, %: (79.4) %
Baseline pathogen MSSA, investigator assessment
  Overall Clinical Success at PTE, %: (79.2) %
Baseline pathogen Prevotella denticola, investigator assessment
  Overall Clinical Success at PTE, %: (0.0) %
Baseline pathogen Prevotella melaninogenica, investigator assessment
  Overall Clinical Success at PTE, %: (100.0) %
Baseline pathogen Staphylococcus aureus, investigator assessment
  Overall Clinical Success at PTE, %: (79.8) %
Baseline pathogen Streptococcus agalactiae, investigator assessment
  Overall Clinical Success at PTE, %: (50.0) %
Baseline pathogen Streptococcus anginosus group, investigator assessment
  Overall Clinical Success at PTE, %: (73.3) %
Baseline pathogen Streptococcus anginosus, investigator assessment
  Overall Clinical Success at PTE, %: (80.0) %
Baseline pathogen Streptococcus constellatus, investigator assessment
  Overall Clinical Success at PTE, %: (71.4) %
Baseline pathogen Streptococcus intermedius, investigator assessment
  Overall Clinical Success at PTE, %: (66.7) %
Baseline pathogen Streptococcus pyogenes, investigator assessment
  Overall Clinical Success at PTE, %: (56.3) %
Investigator assessment, CE-PTE
  Overall clinical response at PTE: Clinical Failure: 13 (4.5) n (%)
Investigator assessment, CE-PTE (N = 284 / N = 292)
  Overall clinical response at PTE: Clinical Success: 279 (95.5) n (%)
Investigator assessment, mITT
  Overall clinical response at PTE: Clinical Failure: 21 (5.8) n (%)
  Overall clinical response at PTE: Clinical Failure or Indeterminate: 69 (19.2) n (%)
  Overall clinical response at PTE: Indeterminate: 48 (13.3) n (%)
Investigator assessment, mITT (N = 360 per arm)
  Overall clinical response at PTE: Clinical Success: 291 (80.8) n (%)
